Consider four compounds from patent US12509449B2, “Anthelmintic compounds comprising a quinoline structure” (Intervet Inc., priority 2019, dated 2025).

pEC50: −log10 of the molar value.

Test [1] deals with Dirofilaria immitis L4. As to the kind of experiment: In vitro assay Dirofilaria immitis L4 motility. It counts as cell-based. The note with it: 72 h, 10 larvae L4, incubation 3 days, read-out: EC50 Dirofilaria immitis L4, reduction in motility. How it is done:
10 larvae L4 of D. immitis were added to a microtiter plate containing a nutrient medium and the test compound in DMSO at varying concentrations. After incubation for 3 days, activity was evaluated as reduction in motility as compared to DMSO as negative control. Compounds were tested in duplicates. Based on the concentration response curves EC50 values were calculated.

For test [2], the target named is Caenorhabditis elegans slo-1a (Caenorhabditis elegans, UniProt Q95V25). Briefly: Agonistic activity at C. elegans Slo-1a, membrane potential (FLIPR) in transfected CHO K1 cells. The note with it: EC50 agonistic activity at C. elegans Slo-1a, membrane potential dye, 70 mM KCl.
Chain of Caenorhabditis elegans slo-1a (Q95V25 whole entry): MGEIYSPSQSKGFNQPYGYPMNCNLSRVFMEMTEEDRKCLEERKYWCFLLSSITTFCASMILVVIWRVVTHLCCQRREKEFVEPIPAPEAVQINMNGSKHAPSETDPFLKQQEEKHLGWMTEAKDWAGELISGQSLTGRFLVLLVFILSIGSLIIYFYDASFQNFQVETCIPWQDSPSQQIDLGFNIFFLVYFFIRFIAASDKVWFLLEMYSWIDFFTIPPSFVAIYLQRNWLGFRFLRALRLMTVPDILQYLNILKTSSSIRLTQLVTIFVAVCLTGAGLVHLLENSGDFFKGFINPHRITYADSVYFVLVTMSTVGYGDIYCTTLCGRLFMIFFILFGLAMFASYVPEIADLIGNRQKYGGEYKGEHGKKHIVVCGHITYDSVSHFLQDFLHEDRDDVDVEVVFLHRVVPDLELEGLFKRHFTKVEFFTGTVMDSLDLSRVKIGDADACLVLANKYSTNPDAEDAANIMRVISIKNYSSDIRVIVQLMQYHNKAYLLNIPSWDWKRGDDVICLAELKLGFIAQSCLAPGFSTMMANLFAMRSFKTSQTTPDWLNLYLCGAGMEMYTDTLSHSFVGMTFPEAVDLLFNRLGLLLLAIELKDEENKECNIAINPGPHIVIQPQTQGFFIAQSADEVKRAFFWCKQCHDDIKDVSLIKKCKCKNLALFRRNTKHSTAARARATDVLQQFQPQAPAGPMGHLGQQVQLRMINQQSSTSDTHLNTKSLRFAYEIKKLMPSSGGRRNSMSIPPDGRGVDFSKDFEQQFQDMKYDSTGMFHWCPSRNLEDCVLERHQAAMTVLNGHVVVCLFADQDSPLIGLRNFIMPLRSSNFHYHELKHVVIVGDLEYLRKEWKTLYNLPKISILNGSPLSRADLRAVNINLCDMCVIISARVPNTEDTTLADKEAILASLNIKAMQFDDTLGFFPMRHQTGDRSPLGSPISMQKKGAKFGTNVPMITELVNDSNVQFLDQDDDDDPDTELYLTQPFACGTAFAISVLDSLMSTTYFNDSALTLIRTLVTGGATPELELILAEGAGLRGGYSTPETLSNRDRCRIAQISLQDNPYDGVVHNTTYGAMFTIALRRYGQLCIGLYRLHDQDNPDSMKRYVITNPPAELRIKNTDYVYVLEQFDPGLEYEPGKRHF
Experimental: A CHO K1 cell line stably transfected with the Caenorhabditis elegans slo-1a (accession no Y51A2D.19a) was established. Cells were seeded in microtiter plates (black 384-well MTP, clear bottom) in a concentration of 10,000 cells/well in 25 μl medium and cultured for 20 to 24 hours at 37° C. and 5% CO2. The cell medium was removed, and the cells washed with Tyrode's solution. 1 of FMP-dye Blue-Tyrode's was added to each well and incubated at room temperature for 30 min.
For the membrane potential measurements, the prepared cell plate and substance plate were placed in the FLIPR Tetra (Molecular Devices). The baseline measurement of the fluorescence was stared for 20 sec (Exc. 510-545 nm, Emm. 565-625 nm). The cells were depolarized by addition of 25p of the diluted test compounds (final assay concentration of the KCl-Tyrode: 70 mM KCl, 2 mM CaCl2), 1 mM MgCl2, 0.8 mM NaH2PO4, 5 mM Glucose, 28 mM Hepes, pH 7.4, including the voltage sensitive dye). The complete measurement takes 150 s.
EC50 values were determined in triplicate utilizing compound dilution series. The data were determined at least in two independent tests. The data were proceeded by using the ActivityBase XE Runner software (IDBS) for curve fitting and calculation of the half-maximal effective concentration.
Test [3] deals with Oesophagostumum dentatum L3. Briefly: In vitro assay Oesophagostumum dentatum larval stage 3, minimum effective concentration. Format: cell-based. To be noted: 20 larvae per well, microscopic examination; read-out: MEC (minimum effective concentration) against Oesophagostumum dentatum L3. The source says: (§1) […] galli (intestinal roundworm of chicken), larval stage 3 (“L3”); and Oesophagostumum dentatum (nodular worm of swine), larval stages 3 and 4 (respectively “L3” and “L4”) where suspended in a nutrient medium and distributed to 96 well plates with 20 larvae per well. The wells were spiked DMSO solutions of the compounds with declining concentration.

In test [4] the test system is Ascaridia galli L3. As to the kind of experiment: In vitro assay Ascaridia galli larval stage 3, minimum effective concentration. The note with it: 20 larvae per well, microscopic examination, read-out: MEC (minimum effective concentration) against Ascaridia galli L3. It counts as cell-based.
From the text: as §1

Test [5] has as its target T1, human Maxi K channel (BK channel), KCNMA1 (KCa1.1) and beta1 (KCNMB1) subunits (Homo sapiens, UniProt Q12791).
T1 construct: expressed in transfected cells; host or cells: CHO K1
Briefly: Agonistic activity at the human Maxi K channel (BK channel), membrane potential (FLIPR) in transfected CHO K1 cells. Format: cell-based. The note with it: membrane potential dye, 70 mM KCl. From the text: A CHO K1 cell line was stably transfected with the KCNMA1 (KCa1.1, U11058) and beta1 (KCNMB1) subunits of the human Maxi K channel (Ponte et al, Molecular Pharmacology 2012, 81(4), 567-577).
The complete measurement takes 150 s.

The subject of test [6] is Dirofilaria immitis L1. Briefly: In vitro assay Dirofilaria immitis L1 (microfilaria) motility. Format: cell-based. To be noted: 72 h, incubation 3 days, read-out: EC50 Dirofilaria immitis L1, reduction in motility. How it is done: Approximately 500 D. immitis microfilaria were added to a microtiter plate containing a nutrient medium and the test compound in DMSO at varying concentrations. After incubation for 3 days, activity was evaluated as reduction in motility as compared to DMSO as negative control. Compounds were tested in duplicates. Based on the concentration response curves EC50 values were calculated.

Test [7] concerns Oesophagostumum dentatum L4. Briefly: In vitro assay Oesophagostumum dentatum larval stage 4, minimum effective concentration. Format: cell-based. To be noted: 20 larvae per well, microscopic examination; read-out: MEC (minimum effective concentration) against Oesophagostumum dentatum L4.
From the text: as §1

Test [8] concerns Haemonchus contortus. As to the kind of experiment: In vivo efficacy against Haemonchus contortus in jirds. Details: species or system Haemonchus contortus in jirds (Meriones unguiculatus). The note with it: necropsy three days after treatment. How it is done:
Compounds according to this invention were tested in vivo using Haemonchus contortus in jirds (Meriones unguiculatus). The jirds were orally infected with approximately 1500 third-stage larvae of Haemonchus contortus. Ten days after infection, the jirds in the treatment groups were treated once either orally or subcutaneously with compounds at a dose of […]. For treatment, compounds were dissolved in a mixture of 10% Transcutol, 10% Cremophor EL and 80% physiological sodium chloride solution. Three days after treatment, the jirds were necropsied, and the larvae burden in the stomach was determined. The efficacy was defined as the reduction of the mean larvae count in the infected jirds of the treatment group in comparison to the infected jirds in an untreated control group (negative control).

T1 sequence (Q12791 1-1178 isoform Q12791-5): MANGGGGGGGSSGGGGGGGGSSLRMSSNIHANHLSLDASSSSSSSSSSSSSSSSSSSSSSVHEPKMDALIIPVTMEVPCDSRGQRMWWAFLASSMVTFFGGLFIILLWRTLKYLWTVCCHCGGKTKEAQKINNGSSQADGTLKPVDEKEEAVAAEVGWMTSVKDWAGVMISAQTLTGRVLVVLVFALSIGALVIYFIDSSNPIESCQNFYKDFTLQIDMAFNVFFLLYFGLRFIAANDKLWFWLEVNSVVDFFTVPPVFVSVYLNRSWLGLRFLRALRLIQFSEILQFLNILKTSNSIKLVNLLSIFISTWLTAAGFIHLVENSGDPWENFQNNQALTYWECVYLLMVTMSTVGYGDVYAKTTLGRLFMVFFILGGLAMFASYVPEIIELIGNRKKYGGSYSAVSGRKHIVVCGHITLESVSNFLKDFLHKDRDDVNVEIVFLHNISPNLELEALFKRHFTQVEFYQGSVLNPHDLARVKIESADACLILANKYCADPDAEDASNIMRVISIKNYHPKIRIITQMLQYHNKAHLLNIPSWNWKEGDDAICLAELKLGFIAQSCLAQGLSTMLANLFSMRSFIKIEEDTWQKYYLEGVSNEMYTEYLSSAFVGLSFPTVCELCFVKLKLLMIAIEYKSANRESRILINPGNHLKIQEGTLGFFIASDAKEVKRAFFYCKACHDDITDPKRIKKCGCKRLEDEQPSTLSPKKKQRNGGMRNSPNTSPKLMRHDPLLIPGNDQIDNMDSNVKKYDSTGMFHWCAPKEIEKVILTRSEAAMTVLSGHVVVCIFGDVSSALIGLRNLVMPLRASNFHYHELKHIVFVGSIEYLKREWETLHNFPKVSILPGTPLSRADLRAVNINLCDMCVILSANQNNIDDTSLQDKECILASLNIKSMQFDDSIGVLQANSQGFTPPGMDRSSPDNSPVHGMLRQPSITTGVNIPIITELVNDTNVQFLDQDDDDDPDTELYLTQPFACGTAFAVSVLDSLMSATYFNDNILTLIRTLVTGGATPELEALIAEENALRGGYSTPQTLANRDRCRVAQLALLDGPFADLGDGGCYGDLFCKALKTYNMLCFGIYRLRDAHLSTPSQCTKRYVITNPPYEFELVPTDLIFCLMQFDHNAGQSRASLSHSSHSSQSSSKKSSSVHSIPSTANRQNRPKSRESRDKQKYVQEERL
T1 sequence (Q16558 whole entry partner): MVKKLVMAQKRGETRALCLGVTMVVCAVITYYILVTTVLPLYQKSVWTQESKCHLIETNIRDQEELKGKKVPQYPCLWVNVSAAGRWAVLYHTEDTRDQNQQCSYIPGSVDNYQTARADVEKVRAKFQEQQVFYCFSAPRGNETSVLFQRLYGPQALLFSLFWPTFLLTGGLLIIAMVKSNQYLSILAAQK

Usually pEC50 stands for the EC50 on a negative log10 scale, so that one unit is a factor of ten. As to `CN(C)c1c(NC(=O)Cc2ccccc2)cnc2c(-c3cc(Cl)cc(Cl)c3)cccc12` [Compound 3], the values for the pEC50 in test [1], in test [2] and in test [5] were over 6.00, over 5.00 and under 4.52, respectively. Besides, the minimal effective concentration in test [3] and in test [4] was at most 50 µM each time.
On to `CC(C(=O)Nc1cnc2c(-c3cccc(Cl)c3Cl)cccc2c1N(C)C)c1cccc(Cl)c1` (stereo not shown) [Compound 28], for which the pEC50 was over 5.00 in test [6] and under 4.52 in test [5]. For the same compound, the minimal effective concentration in test [4] and in test [7] was at most 50 µM each time.
On to `COc1cccc(C(C)C(=O)Nc2cnc3c(-c4cccc(Cl)c4Cl)cccc3c2N(C)C)c1` (stereo not shown) [Compound 29], for which the pEC50 in test [2] was over 5.00; in test [6], over 5.00; in test [5], under 4.52. The minimal effective concentration in test [4] and in test [7] was at most 50 µM in each case.
Regarding `O=C(Nc1cnc2c(-c3cccc(Cl)c3Cl)c(F)ccc2c1N1CCOCC1)c1cccc2ccccc12` [Compound 151], the “reduction of the Haemonchus contortus count” value in test [8] (administered orally once at 10 mg/kg bw) and in test [8] (administered subcutaneously once at 10 mg/kg bw) was “at least 80%” each time.
